Assay results: PubChem BioAssay AID1963867 (Molecular Pharmacology Branch, DTP, NCI, 2024)

Test system: KRAS-mutant PDC tumor spheroid with HUVEC/MSC, viability
Experiment: Anticancer human tumor 327498-153-R-J2-PDC patient-derived uterine carcinosarcoma cell line growth inhibition [KRAS2]
Conditions: for IC50: curve of first compound; for viability, T/C: stronger effect = lower value
Summary of the method: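 Combination screen of spheroid viability in tumor-cell co-cultures with endothelial (HUVEC) and mesenchymal stem cell stroma. Each agent was tested in half-log dilutions, topping at clinical Cmax or at 10 microM without a known Cmax.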

[1] = second compound 0.1 µM, first compound 0.0316 µM
[2] = second compound 0.1 µM, first compound 0.1 µM
[3] = second compound 0.1 µM, first compound 0.316 µM
[4] = second compound 0.1 µM, first compound 1 µM
[5] = second compound 0.1 µM, first compound 3.16 µM
[6] = second compound 0.1 µM, first compound 10 µM
[7] = second compound 0.316 µM, first compound 0.0316 µM
[8] = second compound 0.316 µM, first compound 0.1 µM
[9] = second compound 0.316 µM, first compound 0.316 µM
[10] = second compound 0.316 µM, first compound 1 µM
[11] = second compound 0.316 µM, first compound 3.16 µM
[12] = second compound 0.316 µM, first compound 10 µM
[13] = second compound 1 µM, first compound 0.0316 µM
[14] = second compound 1 µM, first compound 0.1 µM
[15] = second compound 1 µM, first compound 0.316 µM
[16] = second compound 1 µM, first compound 1 µM
[17] = second compound 1 µM, first compound 3.16 µM
[18] = second compound 1 µM, first compound 10 µM
[19] = second compound 3.16 µM, first compound 0.0316 µM
[20] = second compound 3.16 µM, first compound 0.1 µM
[21] = second compound 3.16 µM, first compound 0.316 µM
[22] = second compound 3.16 µM, first compound 1 µM
[23] = second compound 3.16 µM, first compound 3.16 µM
[24] = second compound 3.16 µM, first compound 10 µM
[25] = second compound 10 µM, first compound 0.0316 µM
[26] = second compound 10 µM, first compound 0.1 µM
[27] = second compound 10 µM, first compound 0.316 µM
[28] = second compound 10 µM, first compound 1 µM
[29] = second compound 10 µM, first compound 3.16 µM
[30] = second compound 10 µM, first compound 10 µM
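Further: spheroids exposed to agents for seven days before reading.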
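Wherever viability, T/C is given: 100% = DMSO vehicle wells so lower means fewer viable cells.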

| SMILES | IC50 (second compound 0.1 µM) [nM] | IC50 (second compound 0.316 µM) [nM] | IC50 (second compound 1 µM) [nM] | IC50 (second compound 3.16 µM) [nM] | IC50 (second compound 10 µM) [nM] | viability, T/C [1] [%] | viability, T/C [2] [%] | viability, T/C [3] [%] | viability, T/C [4] [%] | viability, T/C [5] [%] | viability, T/C [6] [%] | viability, T/C [7] [%] | viability, T/C [8] [%] | viability, T/C [9] [%] | viability, T/C [13] [%] | viability, T/C [14] [%] | viability, T/C [19] [%] | viability, T/C [20] [%] | viability, T/C [25] [%] | viability, T/C [26] [%] | further results |
| --- | --- | --- | --- | --- | --- | --- | --- | --- | --- | --- | --- | --- | --- | --- | --- | --- | --- | --- | --- | --- | --- |
| COc1cc2nccc(Oc3ccc(NC(=O)C4(C(=O)Nc5ccc(F)cc5)CC4)cc3)c2cc1OC + CNCc1ccccc1-c1csc(C(C)Nc2nc(C)nc3cc(OC)c(OC)cc23)c1 | 2040 | 1910 | 1670 | < 31.6 | < 31.6 | 79.7 | 80.7 | 88.2 | 85.9 | 29.3 | 0.95 | 83 | 72.5 | 77.7 | 72.8 | 73.5 | 0.12 | 0.17 | 0.12 | 0.11 | viability, T/C [10]: 73.3%; viability, T/C [11]: 31.8%; viability, T/C [12]: 0.58%; viability, T/C [15]: 69.7%; viability, T/C [16]: 69.5%; viability, T/C [17]: 25.8%; viability, T/C [18]: 0.3%; viability, T/C [21]: 1.01%; viability, T/C [22]: 0.1%; viability, T/C [23]: 0.06%; viability, T/C [24]: 0.15%; viability, T/C [27]: 0.34%; viability, T/C [28]: 0.34%; viability, T/C [29]: 0.71%; viability, T/C [30]: 0.81% |
| Cn1ncnc1[C@H]1c2n[nH]c(=O)c3cc(F)cc(c23)N[C@@H]1c1ccc(F)cc1 + CC1OCC2(CCN(c3cnc(Sc4ccnc(N)c4Cl)c(N)n3)CC2)C1N | 10.9 | 1.14 | < 0.316 | < 0.316 | < 0.316 | 31.4 | 18 | – | – | – | – | 23.3 | 15.6 | – | 15.6 | 13.2 | 11.2 | 9.64 | 12.4 | 8.58 | viability, T/C (second compound 0.1 µM, first compound 0.000316 µM): 71.8%; viability, T/C (second compound 0.1 µM, first compound 0.001 µM): 68.1%; viability, T/C (second compound 0.1 µM, first compound 0.00316 µM): 59.4%; viability, T/C (second compound 0.1 µM, first compound 0.01 µM): 55.2%; viability, T/C (second compound 0.316 µM, first compound 0.000316 µM): 58%; viability, T/C (second compound 0.316 µM, first compound 0.001 µM): 51.1%; viability, T/C (second compound 0.316 µM, first compound 0.00316 µM): 40.7%; viability, T/C (second compound 0.316 µM, first compound 0.01 µM): 38.2%; viability, T/C (second compound 1 µM, first compound 0.000316 µM): 45.5%; viability, T/C (second compound 1 µM, first compound 0.001 µM): 37.2%; viability, T/C (second compound 1 µM, first compound 0.00316 µM): 26.6%; viability, T/C (second compound 1 µM, first compound 0.01 µM): 21.4%; viability, T/C (second compound 3.16 µM, first compound 0.000316 µM): 30%; viability, T/C (second compound 3.16 µM, first compound 0.001 µM): 32.2%; viability, T/C (second compound 3.16 µM, first compound 0.00316 µM): 25%; viability, T/C (second compound 3.16 µM, first compound 0.01 µM): 19.2%; viability, T/C (second compound 10 µM, first compound 0.000316 µM): 29.5%; viability, T/C (second compound 10 µM, first compound 0.001 µM): 27.1%; viability, T/C (second compound 10 µM, first compound 0.00316 µM): 21.9%; viability, T/C (second compound 10 µM, first compound 0.01 µM): 15.5% |
| O=C(c1cc(Cc2n[nH]c(=O)c3ccccc23)ccc1F)N1CCN(C(=O)C2CC2)CC1 + C=CC(=O)N1CCN(c2nc(=O)n(-c3c(C)ccnc3C(C)C)c3nc(-c4c(O)cccc4F)c(F)cc23)C(C)C1 | 970 | 713 | 588 | 488 | < 31.6 | 60.2 | 57.3 | 65.3 | 48.8 | 23.6 | 16.3 | 59.5 | 59.4 | 57.5 | 66.3 | 60.1 | 66 | 61.2 | 49.5 | 48.2 | viability, T/C [10]: 46.8%; viability, T/C [11]: 21.9%; viability, T/C [12]: 15.2%; viability, T/C [15]: 56%; viability, T/C [16]: 46.2%; viability, T/C [17]: 26.5%; viability, T/C [18]: 16.4%; viability, T/C [21]: 51.7%; viability, T/C [22]: 46.4%; viability, T/C [23]: 22.6%; viability, T/C [24]: 18.2%; viability, T/C [27]: 47.3%; viability, T/C [28]: 36.3%; viability, T/C [29]: 24.8%; viability, T/C [30]: 18.9% |
| COc1cc(Nc2ncc3c(n2)-c2ccc(Cl)cc2C(c2c(F)cccc2OC)=NC3)ccc1C(=O)O + CC1OCC2(CCN(c3cnc(Sc4ccnc(N)c4Cl)c(N)n3)CC2)C1N | < 31.6 | < 31.6 | < 31.6 | < 31.6 | < 31.6 | 14.7 | 11.3 | 9.61 | 8.46 | 10.4 | 10.4 | 11.9 | 8.86 | 8.33 | 9.52 | 8.62 | 7.99 | 6.54 | 7.28 | 6.61 | viability, T/C [10]: 8.66%; viability, T/C [11]: 9.93%; viability, T/C [12]: 9.67%; viability, T/C [15]: 7.21%; viability, T/C [16]: 7.15%; viability, T/C [17]: 8.7%; viability, T/C [18]: 7.62%; viability, T/C [21]: 6%; viability, T/C [22]: 5.95%; viability, T/C [23]: 6.67%; viability, T/C [24]: 5.35%; viability, T/C [27]: 6.26%; viability, T/C [28]: 6.94%; viability, T/C [29]: 6.28%; viability, T/C [30]: 5.22% |
| COC(=O)c1ccc2c(C(=Nc3ccc(N(C)C(=O)CN4CCN(C)CC4)cc3)c3ccccc3)c(O)[nH]c2c1 + CC1OCC2(CCN(c3cnc(Sc4ccnc(N)c4Cl)c(N)n3)CC2)C1N | 561 | 157 | < 31.6 | < 31.6 | < 31.6 | 76 | 68.8 | 58 | 43.8 | 26 | 26.8 | 57.1 | 50.7 | 44.7 | 40.4 | 41.9 | 36 | 33.4 | 28 | 27.9 | viability, T/C [10]: 34.5%; viability, T/C [11]: 16.2%; viability, T/C [12]: 18.8%; viability, T/C [15]: 33.3%; viability, T/C [16]: 20.6%; viability, T/C [17]: 14.5%; viability, T/C [18]: 11.4%; viability, T/C [21]: 23.5%; viability, T/C [22]: 14.1%; viability, T/C [23]: 11%; viability, T/C [24]: 10.1%; viability, T/C [27]: 20.5%; viability, T/C [28]: 13.3%; viability, T/C [29]: 11.4%; viability, T/C [30]: 9.36% |
| COC(=O)c1ccc2c(C(=Nc3ccc(N(C)C(=O)CN4CCN(C)CC4)cc3)c3ccccc3)c(O)[nH]c2c1 | – | – | – | – | – | – | – | – | – | – | – | – | – | – | – | – | – | – | – | – | viability, T/C (compound 0.0316 µM): 89.5% [middle of 5 runs]; viability, T/C (compound 0.1 µM): 94.6% [middle of 5 runs]; viability, T/C (compound 0.316 µM): 84.9% [middle of 5 runs] |
| CC1OCC2(CCN(c3cnc(Sc4ccnc(N)c4Cl)c(N)n3)CC2)C1N (stereo not drawn) + C=CC(=O)N1CCN(c2nc(=O)n(-c3c(C)ccnc3C(C)C)c3nc(-c4c(O)cccc4F)c(F)cc23)C(C)C1 | < 31.6 | < 31.6 | < 31.6 | < 31.6 | < 31.6 | 44.1 | 34.8 | 25.5 | 25.2 | 21 | 16.3 | 41.1 | 33.4 | 26.4 | 40.6 | 31.6 | 41.8 | 37.4 | 33.3 | 28 | viability, T/C [10]: 23.3%; viability, T/C [11]: 19.1%; viability, T/C [12]: 15.9%; viability, T/C [15]: 31.7%; viability, T/C [16]: 22.9%; viability, T/C [17]: 17.8%; viability, T/C [18]: 16.9%; viability, T/C [21]: 28.7%; viability, T/C [22]: 23.2%; viability, T/C [23]: 22.8%; viability, T/C [24]: 19.4%; viability, T/C [27]: 23.1%; viability, T/C [28]: 21.1%; viability, T/C [29]: 16.1%; viability, T/C [30]: 16.9% |
